The text below walks through data of patent publication US10861154B2, “Cell analysis system, cell analysis program and cell analysis method” (Sony Corporation, priority 2013, dated 2020).

What all share (assay type): cell-based
For data set [1], the system named is rat cerebral cortex primary culture. Nature of the data set: Motion amount of rat cerebral cortex primary culture after adding aquaporin inhibitor (Example 3). The following applies: 5 μm of HgCl2, FIG. 15. The protocol: Further, on the microscope having the chamber, rat cerebral cortex primary culture (produced by Lonza, Inc.) was set. A video image of the cells, of 260 frames at object lens magnification 20× and at 7.5 fps (for iCell Neuron) or 5 fps (for rat cerebral cortex primary culture), was taken and was obtained as a cell image. To the cell culture, […] of HgCl2 as aquaporin inhibitor was added.
The cell image was analyzed with the use of the above-described cell analysis system. Specifically, the motion information was extracted by block matching, using each of the neural cells in the cell image as the extraction range, and the motion amount was calculated from the motion information. FIG. 15 is a graph showing a result of the calculation of the motion amount. In the figure, “0 min” in the abscissa is the time of the addition of the […], and the ordinate indicates a relative motion amount when the value before adding HgCl2 (at 0 min) is assumed to be 1.

The subject of data set [2] is metabolism of the cell. Nature of the data set: Effect on metabolism of the cell. The following applies: 5 μm of HgCl2.
In data set [3] the test system is iPS cell-derived neural cells “iCell Neuron”. Nature of the data set: Motion amount of iCell Neuron after adding ionotropic receptor antagonists (Example 2). The settings on record: 5 μM, FIGS. 9 and 10. As to the method:
(§1) On the microscope having the chamber, iPS cell-derived neural cells “iCell Neuron” (produced by Cellular Dynamics International, Inc.) and rat cerebral cortex primary culture (produced by Lonza, Inc.) were each set. Video images of the cells, of 260 frames at object lens magnification 20× and at 7.5 fps (for iCell Neuron) or 5 fps (for rat cerebral cortex primary culture), were taken and were obtained as cell images. A variety of ionotropic receptor antagonists were added to each of the cell cultures. The ionotropic receptor antagonist was Bicuculline which is GABA (gamma-aminobutyrate) receptor antagonist; or CNQX (6-cyano-7-nitroquinoxaline-2,3-dione) which is non-NMDA Glu (glutamate) receptor antagonist.
(§2) The cell image was analyzed with the use of the above-described cell analysis system. Specifically, the motion information was extracted by block matching, using each of the neural cells in the cell image as the extraction range, and the motion amount was calculated from the motion information. FIGS. 9 to 12 are graphs showing results of the calculation of the motion amount. […] Note that the motion amounts shown in the respective figures are average values of the calculated motion amounts for a plurality of detail parts of nerves. […]

For data set [4], the system named is rat cerebral cortex primary culture. Nature of the data set: Motion amount of rat cerebral cortex primary culture after adding ionotropic receptor antagonists (Example 2). As to the method:
as §1, §2

Data set [5] shares this test system. Nature of the data set: Motion amount of rat cerebral cortex primary culture on change in osmotic pressure by galactose (Example 3). The following applies: galactose at a final concentration of 2.5%, compared with no galactose, FIG. 14. As to the method: On the microscope having the chamber, rat cerebral cortex primary culture (produced by Lonza, Inc.) was set. A video image of the cells, of 260 frames at object lens magnification 20× and at 5 fps, was taken and was obtained as a cell image. To the cell culture, galactose at a final concentration of 2.5% was added. The cell image was analyzed with the use of the above-described cell analysis system. Specifically, the motion information was extracted by block matching, using each of the neural cells in the cell image as the extraction range, and the motion amount was calculated from the motion information.

On to `[Cl][Hg][Cl]` [HgCl2], for which the “relative motion amount after adding HgCl2, value at 0 min = 1” value in data set [1] is “transiently reduced”. In addition, the “inhibition of metabolism of the cell” value in data set [2] is given as “does not inhibit metabolism of the cell”.
`N#Cc1cc2c(cc1[N+](=O)[O-])=NC(=O)C(=O)N=2` [CNQX, 6-cyano-7-nitroquinoxaline-2,3-dione]: the “relative motion amount after adding the ionotropic receptor antagonist, value at 0 min = 1” value in data set [3] is listed as “transiently reduced”; in data set [4] (5 μM, FIGS. 11 and 12), “decreased”. Further, in data set [4] (5 μm of CNQX, FIG. 13), the “motion amount for each individual cell” value is “the cells in which the motion amount was decreased by an influence of the Glu receptor antagonist and the cells in which the motion amount was not decreased”.
Turning to `O=C[C@H](O)[C@@H](O)[C@@H](O)[C@H](O)CO` [galactose], the “median value of the motion amounts for the extraction ranges” value in data set [5] is on record as “almost completely reduced”.
